Results reported in US20030199098A1, “Advanced tool for the quantification uniformity within biological processes and conversions” (priority 2000, published 2003).

How the values were obtained:
[1] = humans, routine clinical experiments
Description: This tool is applicable no matter which technique or equipment is used to obtain the initial readings.

clinical = settings: male, human, in vivo
Description: FIG. 3 ethanol concurrency test (simultaneously performed on the same human subject during a single experimental session) in a graphical representation
The following TABLE 1 of results describes the FIG. 3 curves:
The INTOXIMETER EC/IR 3000, which was used for the data presented in the TABLE 1, was made by Intoximeter, Inc. of St. Louis, Mo. The transcutaneous ethanol sensors (TES #33, #39) were made by Giner Inc. of Waltham, Mass.

Compound: CCO [ethanol]
- Index-K efficiency corridor for alcohol catabolism [1]: up to 3.4
- half-life (clinical): 1.48 h
